Data published in patent US20230112641A1, “METHODS OF TREATING DIARRHEA OR INFLAMMATORY CONDITIONS OF THE GUT” (ABBOTT LABORATORIES, priority 2020, published 2023).
pEC50: −log10 of the molar value.

Target: T1, human GPR109A (Homo sapiens, UniProt Q8TDS4)
T1 construct: expressed in transfected cells
Assay: Intracellular cAMP levels in forskolin-treated GPR109A-expressing colonic cells, measured by fluorescence (cAMP-Glo Assay)
Assay type: cell-based
Settings: cAMP reduction in forskolin-treated cells; read-out: EC50 to activate the GPR109A receptors
Text: The activity of GI-coupled receptors like GPR109A is normally assessed by showing a reduction in cellular levels of cAMP in forskolin-treated cells. This is normally done using the commercially available kit, cAMP-Glo™ Assay. […] When a GI-coupled receptor is activated in forskolin-treated cells, cAMP levels will go up.

T1 sequence (Q8TDS4 whole entry): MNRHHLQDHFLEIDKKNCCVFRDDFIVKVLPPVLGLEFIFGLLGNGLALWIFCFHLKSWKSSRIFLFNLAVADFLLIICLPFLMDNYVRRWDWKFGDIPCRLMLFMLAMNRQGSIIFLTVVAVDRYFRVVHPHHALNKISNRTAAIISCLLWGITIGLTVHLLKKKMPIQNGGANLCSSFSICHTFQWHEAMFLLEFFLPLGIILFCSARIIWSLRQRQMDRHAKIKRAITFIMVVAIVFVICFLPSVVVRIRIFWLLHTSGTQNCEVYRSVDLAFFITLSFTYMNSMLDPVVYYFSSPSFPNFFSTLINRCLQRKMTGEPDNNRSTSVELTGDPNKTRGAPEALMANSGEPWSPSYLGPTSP

Compound: CC(C)(O)CC(=O)O [HMB, beta-hydroxy-beta-methylbutyrate]
- pEC50: 2.60 to 3.60
